“And” between values parts separate entries of the source, which are not always exact repeats. Equal values may be shown once.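 Compound exposure: 48 hours, 5 concentrations, 96-well plates. GI50: concentration for 50% inhibition of growth. Definition used: TGI = concentration required for complete inhibition of growth.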
Columns and labels:
Test in all cases: NCI-60 cell line screen, 48 h
A498 renal = test system: A498 renal
HL-60(TB) leukemia = test system: HL-60(TB) leukemia
KM20L2 colon = test system: KM20L2 colon
NCI-H23 lung = test system: NCI-H23 lung
NCI-H460 lung = test system: NCI-H460 lung
SF-295 CNS = test system: SF-295 CNS
SF-539 CNS = test system: SF-539 CNS
SNB-75 CNS = test system: SNB-75 CNS
MDA-MB-231 breast = test system: MDA-MB-231 breast
SR leukemia = test system: SR leukemia

COc1cc2c(ccc3c4cc(OC)c(OC)cc4c[n+](C)c23)cc1O
TGI (A498 renal): 65.8 µM
TGI (HL-60(TB) leukemia): > 75 µM
TGI (KM20L2 colon): > 75 µM
TGI (NCI-H23 lung): 68.3 µM
TGI (NCI-H460 lung): > 75 µM
TGI (SF-295 CNS): 54.9 µM
TGI (SF-539 CNS): 28.7 µM
TGI (SNB-75 CNS): 16.4 µM

COc1ccc(C(=O)c2sc(Nc3ccc(Cl)cc3)nc2N)cc1
TGI (A498 renal): > 75 µM
TGI (HL-60(TB) leukemia): > 100 µM
TGI (MDA-MB-231 breast): > 92.4 µM
TGI (NCI-H23 lung): > 51.6 µM
TGI (NCI-H460 lung): 36.3 µM
TGI (SF-295 CNS): 46.7 µM
TGI (SF-539 CNS): 66.2 µM
TGI (SNB-75 CNS): 18.4 µM
TGI (SR leukemia): > 45.2 µM

CN(C)CC(CC1=C(CC(CN(C)C)N(C)C)CCC1)N(C)C (centres undefined)
TGI (A498 renal): > 100 µM
TGI (HL-60(TB) leukemia): > 100 µM
TGI (KM20L2 colon): > 100 µM
TGI (NCI-H23 lung): > 100 µM
TGI (NCI-H460 lung): > 100 µM
TGI (SF-295 CNS): > 100 µM
TGI (SF-539 CNS): > 100 µM
TGI (SNB-75 CNS): > 100 µM

Nc1nc(SCCc2ccccc2)nc2nc3c(c(-c4ccccc4)c12)CCCC3
TGI (HL-60(TB) leukemia): > 100 µM
TGI (MDA-MB-231 breast): > 100 µM
TGI (NCI-H23 lung): > 100 µM
TGI (NCI-H460 lung): > 100 µM
TGI (SF-295 CNS): > 100 µM
TGI (SF-539 CNS): > 100 µM
TGI (SNB-75 CNS): 83.7 µM

NC(=O)c1c(NC(=O)c2ccccn2)sc2c1CCC(=O)C2
GI50 (A498 renal): > 100 µM
TGI (A498 renal): > 100 µM
GI50 (NCI-H460 lung): > 100 µM
TGI (NCI-H460 lung): > 100 µM
GI50 (SR leukemia): 0.832 µM
TGI (SR leukemia): > 100 µM

O=C(O)C1C2CCC(O2)C1C(=O)Nc1cccc2cccnc12 (centres undefined)
TGI (A498 renal): > 100 µM
TGI (MDA-MB-231 breast): > 100 µM
TGI (NCI-H23 lung): > 100 µM
TGI (NCI-H460 lung): > 100 µM
TGI (SF-295 CNS): > 100 µM
TGI (SNB-75 CNS): > 100 µM
TGI (SR leukemia): > 100 µM

CCN(CC(=O)O)C(=O)c1cccnc1
TGI (A498 renal): > 100 µM
TGI (MDA-MB-231 breast): > 100 µM
TGI (NCI-H23 lung): > 100 µM
TGI (NCI-H460 lung): > 100 µM
TGI (SF-295 CNS): > 100 µM
TGI (SNB-75 CNS): > 100 µM
TGI (SR leukemia): > 100 µM

CCOC(=O)C1=NN(c2ccc(C)cc2)C2=CC(C)=NN(C)C(=S)N21
TGI (HL-60(TB) leukemia): > 100 µM
TGI (MDA-MB-231 breast): > 100 µM
TGI (NCI-H23 lung): > 100 µM
TGI (NCI-H460 lung): > 100 µM
TGI (SF-295 CNS): > 100 µM
TGI (SF-539 CNS): > 100 µM
TGI (SNB-75 CNS): > 100 µM
TGI (SR leukemia): > 100 µM

CCOC(=O)C(NC(=O)c1ccco1)(Nc1nc2ccc(OCC)cc2s1)C(F)(F)F (centres undefined)
TGI (HL-60(TB) leukemia): > 100 µM
TGI (MDA-MB-231 breast): > 100 µM
TGI (NCI-H23 lung): > 100 µM
TGI (NCI-H460 lung): > 100 µM
TGI (SF-295 CNS): > 100 µM
TGI (SF-539 CNS): > 100 µM
TGI (SNB-75 CNS): 70.7 µM
TGI (SR leukemia): 88.5 µM

Nc1cccc(/C=C/C(=O)N2CCN(CCOC(c3ccccc3)c3ccccc3)CC2)c1
TGI (A498 renal): 31.6 µM
TGI (HL-60(TB) leukemia): 32 µM
TGI (MDA-MB-231 breast): 29.1 µM
TGI (NCI-H23 lung): 35.5 µM
TGI (NCI-H460 lung): 30.6 µM
TGI (SF-295 CNS): 32.1 µM
TGI (SF-539 CNS): 31 µM
TGI (SNB-75 CNS): 26.2 µM
TGI (SR leukemia): 30.9 µM

COc1cccc([C@H]2C/C(=N\NC(=O)C(=O)N[C@@H](C)c3ccccc3)c3ccccc3N2)c1
TGI (A498 renal): > 100 µM
TGI (MDA-MB-231 breast): 41.4 µM
TGI (SF-295 CNS): > 100 µM
GI50 (SF-539 CNS): 0.0208 µM
TGI (SF-539 CNS): 21.3 µM

COc1cc2c(cc1O)CC[C@@H]1[C@@H]2CC[C@]2(C)[C@@H](OCCN(C)C)CC[C@@H]12
GI50 (A498 renal): 0.569 µM
TGI (A498 renal): 1.37 µM
GI50 (HL-60(TB) leukemia): 0.1 µM
TGI (HL-60(TB) leukemia): 0.232 µM
GI50 (MDA-MB-231 breast): 0.153 µM
TGI (MDA-MB-231 breast): 0.595 µM
GI50 (NCI-H23 lung): 0.202 µM
TGI (NCI-H23 lung): 1.12 µM
GI50 (NCI-H460 lung): 0.219 µM
TGI (NCI-H460 lung): 2.09 µM
GI50 (SF-539 CNS): 0.129 µM
TGI (SF-539 CNS): 0.414 µM
GI50 (SNB-75 CNS): 0.0787 µM
TGI (SNB-75 CNS): 0.449 µM
GI50 (SR leukemia): 0.148 µM
TGI (SR leukemia): 0.894 µM

COc1cccc2c1Cc1cc(-c3ccccc3)[n+](C)n1-2
TGI (A498 renal): > 100 µM
TGI (HL-60(TB) leukemia): 44.9 µM
TGI (MDA-MB-231 breast): 81.7 µM
TGI (NCI-H23 lung): 32.4 µM
TGI (NCI-H460 lung): 40.4 µM
TGI (SF-295 CNS): > 100 µM
TGI (SF-539 CNS): 44.1 µM
TGI (SNB-75 CNS): 58.6 µM
TGI (SR leukemia): > 100 µM

O=c1cccccc1[O-].O=c1cccccc1[O-].[O]=[U+2]=[O]
GI50 (A498 renal): 25.1 µM
TGI (A498 renal): 45.8 µM
GI50 (KM20L2 colon): 32 µM
TGI (KM20L2 colon): > 100 µM
TGI (NCI-H23 lung): > 100 µM
TGI (NCI-H460 lung): > 100 µM
TGI (SF-295 CNS): 41.5 µM
GI50 (SF-539 CNS): 20.6 µM
TGI (SF-539 CNS): 43.1 µM

O=C(OCN1C(=O)C2C3C=CC(C2C1=O)C1C2C(=O)N(COC(=O)C4CCCN4)C(=O)C2C31)C1CCCN1 (centres undefined)
TGI (A498 renal): > 100 µM
TGI (HL-60(TB) leukemia): 43.6 µM
TGI (KM20L2 colon): > 100 µM
TGI (NCI-H23 lung): > 100 µM
TGI (NCI-H460 lung): > 56.5 µM
TGI (SF-295 CNS): > 100 µM
TGI (SF-539 CNS): > 100 µM
TGI (SNB-75 CNS): > 100 µM
TGI (SR leukemia): 26.4 µM

CCCCCCCCC/C=C/C=C/C(=O)NCC(=O)NC1C(O)C(O)C(Nc2ncnc3nc[nH]c23)OC1C(O)CO (centres undefined)
TGI (KM20L2 colon): 0.0186 µM and 0.126 µM
GI50 (NCI-H23 lung): 0.0247 µM
GI50 (NCI-H460 lung): 0.00278 µM
TGI (NCI-H460 lung): 1.23 µM and 0.321 µM
GI50 (SF-295 CNS): 0.0441 µM
TGI (SF-295 CNS): 1.08 µM and 8.98 µM
TGI (SF-539 CNS): 0.103 µM
GI50 (SNB-75 CNS): 0.00184 µM
TGI (SNB-75 CNS): 0.018 µM and 0.0703 µM
GI50 (SR leukemia): 0.765 µM

NCCSC(c1ccccc1)c1ccccc1
TGI (A498 renal): 62.5 µM
TGI (HL-60(TB) leukemia): 0.793 µM
TGI (MDA-MB-231 breast): 37.3 µM
TGI (NCI-H23 lung): > 100 µM
TGI (NCI-H460 lung): 29.3 µM
TGI (SF-295 CNS): 35.7 µM
TGI (SF-539 CNS): 37.2 µM
TGI (SNB-75 CNS): 79.9 µM
TGI (SR leukemia): 43 µM

CCC(C)C1=C(OC(C)=O)[N+]2([O-])Oc3ccc(-c4c(OC(C)=O)c(OC(C)=O)c(-c5ccc(OC(C)=O)cc5)c(OC(C)=O)c4OC(C)=O)cc3OC2(C(C)CC)C(=O)N1OC(C)=O (centres undefined)
TGI (A498 renal): > 50 µM
TGI (HL-60(TB) leukemia): 19.7 µM
TGI (MDA-MB-231 breast): > 50 µM
TGI (NCI-H23 lung): > 50 µM
TGI (NCI-H460 lung): > 50 µM
TGI (SF-295 CNS): 21.8 µM
TGI (SF-539 CNS): > 50 µM
TGI (SNB-75 CNS): 42.3 µM
TGI (SR leukemia): 30.6 µM

O=C(/C=C/c1ccc(O)c(-c2cc(C(=O)/C=C/c3ccc(O)cc3)c(O)cc2O)c1)c1ccc(O)cc1O
TGI (A498 renal): > 50 µM
TGI (HL-60(TB) leukemia): > 50 µM
TGI (MDA-MB-231 breast): > 50 µM
TGI (NCI-H23 lung): > 50 µM
TGI (NCI-H460 lung): > 50 µM
TGI (SF-295 CNS): > 50 µM
TGI (SF-539 CNS): 26.3 µM
TGI (SNB-75 CNS): 36 µM
TGI (SR leukemia): 28.4 µM

Fc1ccc(C(OCCN2CCC3CCC(C2)N3C/C=C/c2ccco2)c2ccc(F)cc2)cc1 (centres undefined)
TGI (A498 renal): 23.3 µM
TGI (MDA-MB-231 breast): 23.6 µM
TGI (NCI-H23 lung): 24 µM
TGI (NCI-H460 lung): 24.5 µM
TGI (SF-295 CNS): 27.7 µM
TGI (SF-539 CNS): 28.4 µM
TGI (SNB-75 CNS): 30 µM
TGI (SR leukemia): 42.7 µM

Cc1ccccc1C(=O)N/N=C/c1ccc(Sc2nccn2C)c([N+](=O)[O-])c1
TGI (A498 renal): > 100 µM
TGI (HL-60(TB) leukemia): > 100 µM
TGI (MDA-MB-231 breast): > 100 µM
TGI (NCI-H23 lung): > 100 µM
TGI (NCI-H460 lung): > 100 µM
TGI (SF-295 CNS): > 100 µM
TGI (SF-539 CNS): > 100 µM
TGI (SNB-75 CNS): > 100 µM
TGI (SR leukemia): > 100 µM

From PubChem BioAssay (NCI)
